# Source: patent US11040987B2 (TenNor Therapeutics Limited, priority 2019, dated 2021)
# Tests used:
# [1] = tested on: A.b TNP 41704; test: MIC against A. baumannii clinical isolates, alone and in combination with antibiotics; assay type: cell-based
# [2] = tested on: A.b TNP 41708; test: as above; assay type: cell-based
# Protocol: (§1) Minimum inhibitory concentration (MIC) is determined by a broth microdilution method according to the recommendation of the Clinical and Laboratory Standards Institute (CLSI) with minor modification. […] Strains of an ESKAPE panel (E. faecium ATCC 700221, S. aureus ATCC 29213, K. pneumoniae ATCC 43816, A. baumannii ATCC 19606, P. aeruginosa ATCC 27853 and Escherichia coli ATCC 25922) were obtained originally from the American Type Culture Collection (ATCC) and used for MIC determinations of compounds. The bacteria inoculum in the test is […].
# [3] = molecular target: T1, AmpC_PA (Pseudomonas aeruginosa, UniProt P24735); test: β-lactamase inhibition, spectrophotometric assay of nitrocefin hydrolysis; assay type: biochemical, P. aeruginosa
# T1 construct: made in house
# T1 sequence (P24735 27-397): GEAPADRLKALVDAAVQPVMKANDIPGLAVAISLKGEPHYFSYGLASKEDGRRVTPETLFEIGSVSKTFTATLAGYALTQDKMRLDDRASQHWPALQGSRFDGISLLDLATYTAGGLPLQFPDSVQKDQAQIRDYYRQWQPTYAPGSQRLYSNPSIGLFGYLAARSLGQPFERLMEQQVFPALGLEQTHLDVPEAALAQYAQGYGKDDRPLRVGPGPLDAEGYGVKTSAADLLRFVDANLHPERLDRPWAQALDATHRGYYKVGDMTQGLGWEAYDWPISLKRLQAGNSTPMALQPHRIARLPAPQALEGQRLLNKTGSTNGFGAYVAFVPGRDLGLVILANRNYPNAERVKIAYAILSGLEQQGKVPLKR
# Text: (§2) Hydrolytic inactivation of the β-lactam antibiotics by β-lactamases is the most widespread drug resistant mechanism and the most challenge clinically among Gram-negative bacterial pathogens. Based on the amino acid sequences, the β-lactamases are grouped into four classes (Ambler classification), of which A, C and D are serine hydrolases and B encompasses metallo-β-lactamases. The IC50 of selected derivatives disclosed herein (identified with reference to example number) plus six reference β-lactam or β-lactamase inhibitors were determined against 7 representative β-lactamases of various classes in a standard spectrophotometric assay of nitrocefin hydrolysis. The assay is performed in 384-well plate. The seven recombinant β-lactamases AmpC_AB (from A. baumannii), AmpC_PA (from P. aeruginosa), KPC-2, NDM-1, IMP-1, VIM-1 and OXA 24/40) are expressed and purified. The reaction buffer for class A, C and D enzymes is 100 mM Na2HPO4—KH2PO4 (pH 7.1) plus 0.005% Tween-20, and for class B enzymes 10 μM ZnSO4 is added. […] The 50 μL of reaction solution composed of 2 pM of β-lactamase, 200 μM of nitrocefin and series of 3-fold dilutions of test or control compounds are added by Cybio SELMA system into 384-plate and incubated in dark at 25° C. for 2 hours. The OD490 is read in MC SpectraMax Plus384 plate reader.
# [4] = tested on: S. aureus ATCC 29213; test: MIC determination, broth microdilution, ESKAPE panel; assay type: cell-based; conditions: Staphylococcus aureus, ATCC29213; iron-depleted cation-adjusted Mueller-Hinton broth, 2,2-dipyridyl 160 μM; 37° C., 18-20 hours; read-out: MIC S. aureus ATCC 29213
# Protocol: as §1
# [5] = tested on: K. pneumoniae ATCC 43816; test: as above; assay type: cell-based; conditions: Klebsiella pneumoniae, ATCC43816; iron-depleted cation-adjusted Mueller-Hinton broth, 2,2-dipyridyl 160 μM; 37° C., 18-20 hours; read-out: MIC K. pneumoniae ATCC 43816
# Protocol: as §1
# [6] = tested on: A. baumannii ATCC 19606; test: as above; assay type: cell-based; conditions: Acinetobacter baumannii, ATCC19606; iron-depleted cation-adjusted Mueller-Hinton broth, 2,2-dipyridyl 160 μM; 37° C., 18-20 hours; read-out: MIC A. baumannii ATCC 19606
# Protocol: as §1
# [7] = tested on: Escherichia coli ATCC 25922; test: as above; assay type: cell-based; conditions: ATCC25922, iron-depleted cation-adjusted Mueller-Hinton broth, 2,2-dipyridyl 160 μM, 37° C., 18-20 hours, read-out: MIC E. coli ATCC 25922
# Protocol: as §1
# [8] = tested on: P. aeruginosa ATCC 27853; test: as above; assay type: cell-based; conditions: Pseudomonas aeruginosa, ATCC27853; iron-depleted cation-adjusted Mueller-Hinton broth, 2,2-dipyridyl 160 μM; 37° C., 18-20 hours; read-out: MIC P. aeruginosa ATCC 27853
# Protocol: as §1
# [9] = tested on: E. faecium ATCC 700221; test: as above; assay type: cell-based; conditions: Enterococcus faecium, ATCC700221; iron-depleted cation-adjusted Mueller-Hinton broth, 2,2-dipyridyl 160 μM; 37° C., 18-20 hours; read-out: MIC E. faecium ATCC 700221
# Protocol: as §1
# [10] = molecular target: T2, KPC-2 (Klebsiella pneumoniae, UniProt Q9F663); test: β-lactamase inhibition, spectrophotometric assay of nitrocefin hydrolysis; assay type: biochemical; conditions: class A β-lactamase; 200 μM nitrocefin, 25° C., 2 hours; read-out: IC50 KPC-2
# T2 construct: made in house
# T2 sequence (Q9F663 25-293, looked up, species assumed): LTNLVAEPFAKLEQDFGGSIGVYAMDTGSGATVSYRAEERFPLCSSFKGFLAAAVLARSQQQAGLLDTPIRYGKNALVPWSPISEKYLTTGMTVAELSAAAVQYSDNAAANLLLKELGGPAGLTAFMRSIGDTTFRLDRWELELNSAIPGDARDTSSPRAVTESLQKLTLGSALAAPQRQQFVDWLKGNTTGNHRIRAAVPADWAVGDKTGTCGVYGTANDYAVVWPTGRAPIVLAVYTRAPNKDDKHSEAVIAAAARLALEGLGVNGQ
# Text: as §2
# [11] = molecular target: T3, VIM-1 (Pseudomonas aeruginosa, UniProt A0A0F7KYQ8); test: as above; assay type: biochemical; conditions: for IC50: class B β-lactamase, 10 μM ZnSO4, 200 μM nitrocefin, 25° C., 2 hours, read-out: IC50 VIM-1
# T3 construct: made in house
# Text: as §2
# [12] = molecular target: T4, IMP-1 (Serratia marcescens, UniProt P52699); test: as above; assay type: biochemical; conditions: class B β-lactamase, 10 μM ZnSO4; 200 μM nitrocefin, 25° C., 2 hours; read-out: IC50 IMP-1
# T4 construct: made in house
# T4 sequence (P52699 19-246, looked up, species assumed): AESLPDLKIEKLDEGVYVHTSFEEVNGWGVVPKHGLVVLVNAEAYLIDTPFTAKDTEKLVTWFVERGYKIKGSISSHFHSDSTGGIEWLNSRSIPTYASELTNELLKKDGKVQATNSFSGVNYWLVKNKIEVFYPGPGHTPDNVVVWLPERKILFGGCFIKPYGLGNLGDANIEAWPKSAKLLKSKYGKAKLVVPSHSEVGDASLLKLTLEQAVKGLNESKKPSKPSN
# Text: as §2
# [13] = molecular target: AmpC_AB (Acinetobacter baumannii, UniProt Q6DRA1); test: as above; assay type: biochemical; conditions: Class C β-lactamase; 200 μM nitrocefin, 25° C., 2 hours; read-out: IC50 AmpC_AB
# Text: as §2
# [14] = molecular target: T5, OXA 24/40 (Acinetobacter baumannii, UniProt Q8RLA6); test: as above; assay type: biochemical
# T5 construct: made in house
# T5 sequence (Q8RLA6 22-275): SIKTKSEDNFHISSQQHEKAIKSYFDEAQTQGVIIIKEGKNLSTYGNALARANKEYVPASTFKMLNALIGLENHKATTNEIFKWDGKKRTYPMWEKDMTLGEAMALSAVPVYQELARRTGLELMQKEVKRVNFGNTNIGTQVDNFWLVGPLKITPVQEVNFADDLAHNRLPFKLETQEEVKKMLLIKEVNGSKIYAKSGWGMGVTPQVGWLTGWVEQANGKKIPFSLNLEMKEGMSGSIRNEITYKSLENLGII
# Text: as §2
# [15] = molecular target: T6, NDM-1 (Klebsiella pneumoniae, UniProt C7C422); test: as above; assay type: biochemical; conditions: class B β-lactamase, 10 μM ZnSO4; 200 μM nitrocefin, 25° C., 2 hours; read-out: IC50 NDM-1
# T6 construct: made in house
# T6 sequence (C7C422 29-270, looked up, species assumed): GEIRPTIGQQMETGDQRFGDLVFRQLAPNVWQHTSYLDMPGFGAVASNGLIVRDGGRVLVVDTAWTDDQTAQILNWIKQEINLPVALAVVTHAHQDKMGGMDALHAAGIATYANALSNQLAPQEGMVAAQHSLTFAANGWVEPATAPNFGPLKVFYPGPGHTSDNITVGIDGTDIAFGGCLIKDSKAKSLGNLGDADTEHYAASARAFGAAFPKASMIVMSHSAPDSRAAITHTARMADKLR
# Text: as §2
# [16] = tested on: A.b TNP 41709; test: MIC against A. baumannii clinical isolates, alone and in combination with antibiotics; assay type: cell-based
SMILES,IC50 [3],IC50 [10],IC50 [11],IC50 [12],IC50 [13],IC50 [14],IC50 [15],also measured
"C[C@]1(/C=N/NC(=O)C2CCN(C(=O)c3ccc(O)c(O)c3Cl)C2)[C@H](C(=O)O)N2C(=O)C[C@H]2S1(=O)=O (stereo partly drawn) [Example 38, (2S,3R,5R)-3-((E)-(2-(1-(2-chloro-3,4-dihydroxybenzoyl)pyrrolidine-3-carbonyl)hydrazono)methyl)-3-methyl-7-oxo-4-thia-1-azabicyclo[3.2.0]heptane-2-carboxylic acid 4,4-dioxide]",2.38 µM,> 200 µM,> 200 µM,> 200 µM,7.62 µM,5.93 µM,> 200 µM,"MIC ([1]; Acinetobacter baumannii, TNP41704, Compounds alone, read-out: MIC A.b TNP 41704): > 128 µg/mL; MIC A.b TNP 41704 ([1]; Compounds + meropenem (1:1)): 4 µg/mL; MIC A.b TNP 41704 ([1]; Compounds + sulbactam (1:1)): 4 µg/mL; MIC ([2]; Acinetobacter baumannii, TNP41708, read-out: MIC A.b TNP 41708): > 128 µg/mL; MIC A.b TNP 41708 ([2]; Compounds + meropenem (1:1)): 4 µg/mL; MIC A.b TNP 41708 ([2]; Compounds + sulbactam (1:1)): 8 µg/mL; MIC [4]: 128 µg/mL; MIC [5]: 32 µg/mL; MIC [6]: 8 µg/mL; MIC [7]: > 128 µg/mL; MIC [8]: > 128 µg/mL; MIC [9]: > 128 µg/mL; MIC ([16]; Acinetobacter baumannii, TNP41709, Compounds alone, read-out: MIC A.b TNP 41709): > 128 µg/mL; MIC A.b TNP 41709 ([16]; Compounds + meropenem (1:1)): 2 µg/mL; MIC A.b TNP 41709 ([16]; Compounds + sulbactam (1:1)): 8 µg/mL"
"CN(/N=C/[C@@]1(C)[C@H](C(=O)O)N2C(=O)C[C@H]2S1(=O)=O)C(=O)c1ccc(O)c(O)c1 [Example 7, (2S,3R,5R)-3-((E)-(2-(3,4-dihydroxybenzoyl)-2-methylhydrazono)methyl)-3-methyl-7-oxo-4-thia-1-azabicyclo[3.2.0]heptane-2-carboxylic acid 4,4-dioxide]",1.52 µM,> 200 µM,58.2 µM,> 200 µM,0.596 µM,6.03 µM,> 200 µM,activity against VIM-1 of class B (in words) ([11]; text summary of Table 4): weak activity
"C[C@]1(/C=N/NC(=O)c2ccc(O)c(O)c2Cl)[C@H](C(=O)O)N2C(=O)C[C@H]2S1(=O)=O [Example 23, (2S,3R,5R)-3-((E)-(2-(2-chloro-3,4-dihydroxybenzoyl)hydrazono)methyl)-3-methyl-7-oxo-4-thia-1-azabicyclo[3.2.0]heptane-2-carboxylic acid 4,4-dioxide]",2.45 µM,> 200 µM,> 200 µM,> 200 µM,0.718 µM,3.18 µM,> 200 µM,
"O=C(NNC(=O)[C@@H]1CC[C@@H]2CN1C(=O)N2OS(=O)(=O)O)[C@@H]1CCCNC1 [Zidebactam, reference compound]",,2.36 µM,> 200 µM,> 200 µM,0.248 µM,51 µM,> 200 µM,
"CN(/N=C/[C@@]1(C)[C@H](C(=O)O)N2C(=O)C[C@H]2S1(=O)=O)C(=O)c1ccc(O)c(O)c1Cl [Example 3, (2S,3R,5R)-3-((E)-(2-(2-chloro-3,4-dihydroxybenzoyl)-2-methylhydrazono)methyl)-3-methyl-7-oxo-4-thia-1-azabicyclo[3.2.0]heptane-2-carboxylic acid 4,4-dioxide]",2.42 µM,> 200 µM,> 200 µM,> 200 µM,0.72 µM,2.3 µM,> 200 µM,
